# “And” between values parts separate entries of the source, which are not always exact repeats. Equal values may be shown once.
# Experiments:
# [1] = system: cyanobacterial spheroplast system; assay: Activity in a cyanobacterial spheroplast system; type: cell-based
# Source text: (§1) Synthetic cyanobacterin such as the racemic mixture prepared by Jong T. T. et al in J. Org.
# whole cell growth = assay: Whole cell growth measurements, long term studies; type: cell-based
# Source text: as §1
# cell growth = assay: Biological activity / cell growth of the anhydro analog; type: cell-based
# Source text: The cyanobacterin used in this invention may be obtained from Scytonema hofmanni (UTEX 2349 University of Texas Collection, Austin, Tex.) cells. Cyanobacterin is a diaryl substituted gamma-ylidene, gamma-butyro lactone with a chlorine substituent on one of the aromatic rings. […] This compound results from dehydration of the parent compound: [drawing 1]
# It has been postulated by the inventor that a hydrophilic constituent on the lactone ring is crucial to the activity of cyanobacterin and may be involved in protein binding.
# photosystem II = assay: Hill reaction / oxygen evolution in pea chloroplasts; type: biochemical
# Source text: It is theorized that cyanobacterin acts on green plants by specifically binding to some component of the photosynthetic electron transport system.
# (§2) Cyanobacterin, when applied to the soil had no effect. […] Also, it may not be transported through the root vascular system. The Hill reaction is inhibited by cyanobacterin as shown by the use of photosynthetically active pea chloroplasts.
# [2] = system: Zea Mays of the hybrid variety Goldencross Bantam; assay: Spray treatment of sweet corn; type: in vivo; conditions: 1.0 milligrams, Example I composition
# Protocol: (§3) 10 mg of cyanobacterin dissolved in lml. of ethyl ether was mixed with 0.1 ml of the Science "Sticker" of Science Products, Co., which contains about 77% Triton B-1956 brand surfactant. 10 ml of water was added and mixed. After mixing for about 30 minutes to allow the ether to evaporate, the composition was ready to apply to plants.
# (§4) A variety of green plants were treated with a cyanobacterin solution prepared in accordance with Example I above. An atomizer was used to spray the plants with a fine spray. Before placing the fluid into an atomizer, the solution was measured and then remeasured after application on the plants.
# (§5) A control solution of 0.1 ml of sticker-ether in 10 ml of distilled water was applied to the control plants. These plants were treated in the same manner as in the cyanobacterin application and measured in the same way. Plants were cut off at the soil line and dried for 16 hours at 110° C.
# Zea Mays of the hybrid variety Goldencross Bantam was tested with one plant per pot. A total of nine control plants were used and 14 plants were treated with the cyanobacterin composition of Example I. The plants were treated once, 8 days after germination. After growing for a total of 15 days after treatment, the plants were cut off at the soil line and the dry weight was determined. A control plant dry weight was 227.4 milligrams and the cyanobacterin treated plant dry weight was 59.4 milligrams. The amount of cyanobacterin utilized was 1.0 milligrams.
# [3] = system: Lemna gibba, L.minor and Lemna 6746 (Duckweed); assay: Use against aquatic plants (frond multiplication, toxicity); type: in vivo
# Protocol: The effect of cyanobacterin was initially tested on the aquatic angiosperms, Lemna gibba, L.minor and Lemna 6746 (Duckweed). Cyanobacterin stopped frond multiplication at a minimum dose of 0.5 μg per ml of growth medium (1.1 μM). The plants recovered after about 7-12 days. Presumably, this is due to degradation of the cyanobacterin over time which drops the dosage below the minimum. At a concentration of 1.0 μg/ml (2.3 μM), cyanobacterin is toxic to Lemna. The plants generally appear normal for 10-15 days after which the roots fall off and the leaves become chlorotic.
# [4] = Herbicidal effect, amount relative to plant dry weight; type: in vivo; conditions: by dry weight
# Source text: The composition may be formulated from high purity cyanobacterin or from crude extracts obtained from the blue-green algae since high purity is not required. […] Additionally, the composition may be formulated from a synthetic cyanobacterin, such as the racemic mixture described by T. T. Jong et al, "Total synthesis and X-ray structure determination of cyanobacterin", J. Org. Chem. 49:735-736(1984).
# Avena fatua = assay: Spray treatment of wild oats; type: in vivo
# Protocol: as §3, §4, §5
# Avena fatua plants were grown at a rate of over 10 plants per pot. A total of 5 control pots were used and 5 cyanobacterin treated pots were utilized.
# Three separate concentrations of cyanobacterin were utilized. In group 1 the plants were treated 3 days after germination with 0.44 milligrams of the cyanobacterin. […] A second group were treated with 0.6 milligrams of cyanobacterin two weeks after germination. […] The third group of plants were treated with 1.05 milligrams of cyanobacterin 7 days after germination.
# [5] = system: Pisum sativum, var. Little Marvel; assay: Spray treatment of pea; type: in vivo
# Protocol: as §3, §4, §5
# Pisum sativum, var. Little Marvel, plants were tested at a rate of 1 and 2 plants per pot. With one plant per pot, a total of nine control plants were used and 12 cyanobacterin treated plants were utilized. With 2 plants per pot, one control plant was utilized and 2 cyanobacterin treated plants were utilized. The plants were treated 8 and 6 days after germination respectively, with the cyanobacterin compound of Example I. The pots containing 1 plant per pot were treated with 1.5 milligrams and the pots containing 2 plants were treated with 0.6 milligrams of the cyanobacterin compound. The control plant dry weight of a single plant per pot plants after the fifteen days of growth was 363.8 milligrams and 194.9 milligrams for the cyanobacterin treated plant dry weight.
# Setaria viridis = assay: Spray treatment of green foxtail; type: in vivo; conditions: for treated plant dry weight: fifteenth day
# Protocol: as §3, §4, §5
# Setaria viridis plants were grown at a rate of over 10 per pot. A total of 5 control pots were used and 5 cyanobacterin treated pots were utilized. Two concentrations of cyanobacterin were utilized. In the first group 0.5 milligrams of cyanobacterin was applied to plants 8 days after germination. The control plant dry weight on the fifteenth day after cutting was 365.8 milligrams and the cyanobacterin treated plant dry weight was 176.3 milligrams. A second group of plants was treated with 2.8 milligrams of cyanobacterin 7 days after germination.
# Polygonium convolvulus = assay: Spray treatment of wild buckwheat; type: in vivo; conditions: for treated plant dry weight: fifteenth day
# Protocol: as §3, §4, §5
# Polygonium convolvulus plants were raised at a rate of over 10 plants per pot. Five control pots were used and 5 pots were treated with the cyanobacterin containing compound of the invention.
# The first plants treated were treated 2 days after germination with 0.29 milligrams of the cyanobacterin. The control plant dry weight at the fifteenth day was 92.4 milligrams and the cyanobacterin treated dry weight was 59.1 milligrams. The second group of plants were treated 4 days after germination with 0.5 milligrams of cyanobacterin.
# Application to the soil = type: in vivo
# Source text: as §2
# Hydrophobicity = type: physicochemical
# Rumex crispus = assay: Spray treatment of curled dock; type: in vivo; conditions: for treated plant dry weight: fifteenth day
# Protocol: as §3, §4, §5
# Rumex crispus was grown at a rate of 10 plants or more per pot. A total of 5 control pots were used and 5 pots were treated with the cyanobacterin containing compound of Example I. Seven days after germination the plants were treated with 1.45 milligrams of cyanobacterin. […] By the 9th day, half the plants were dead and half were chlorotic. […] The control plant dry weight at the fifteenth day was 453.3 milligrams and the cyanobacterin dry weight was 93.1 milligrams.
# Curled dock plants were also treated with 0.5 milligrams of cyanobacterin. The plants were treated with the cyanobacterin compound 8 days after germination. On the 7th day after treatment, many of the plants were dead and others were chlorotic.
smiles,measurement,setting,value
COc1ccc(/C=C2\OC(=O)C(Cc3cc(Cl)c4c(c3)OCO4)C2(O)C(C)C)cc1 (racemic) [Synthetic cyanobacterin],activity relative to cyanobacterin,[1],about half the activity of cyanobacterin
same,activity relative to cyanobacterin,whole cell growth,the same activity
COc1ccc(/C=C2\OC(=O)C(Cc3cc(Cl)c4c(c3)OCO4)=C2C(C)C)cc1 [anhydrocyanobacterin],biological activity,cell growth,no biological activity
same,effect on cell growth,cell growth,no effect on cell growth
COc1ccc(/C=C2\OC(=O)C(Cc3cc(Cl)c4c(c3)OCO4)C2(O)C(C)C)cc1 (stereo not drawn) [cyanobacterin],electron flow from water to electron acceptors,photosystem II,inhibits electron flow
same,Hill reaction,photosystem II; photosynthetically active pea chloroplasts,inhibited
same,concentration that completely inhibits oxygen evolution,"photosystem II; photosynthetically active pea chloroplasts, in the presence of DCPIP",110 nM
same,plant condition by the fifteenth day,[2],dead
same,plant condition on the ninth day after treatment,[2],no new growth
same,treated plant dry weight,"[2]; treated once 8 days after germination, 15 days after treatment, control 227.4 milligrams",59.4 milligrams
same,plant condition by 30 days,"[3]; 1.0 μg/ml or greater, purified cyanobacterin",most plants treated with 1.0 μg/ml or greater concentrations of purified cyanobacterin were dead
same,time until plants recovered,[3]; at minimum dose 0.5 μg per ml,7 to 12 days
same,minimal effective concentration,"[3]; in growth medium, read-out: minimum dose that stopped frond multiplication",0.5 µg/mL and 1.1 µM
same,amount effective as a herbicide relative to plant dry weight,[4],one part of the cyanobacterin to 450 parts of the plant
same,treated plant dry weight,"Avena fatua; 0.44 milligrams, 3 days after germination, fifteen days after treatment, control 154.6 milligrams",115.5 milligrams
same,plant condition at the end of the experiment,Avena fatua; 0.44 to 1.05 milligrams,stressed but overall were still green and growing
same,treated plant dry weight,"Avena fatua; 0.6 milligrams, two weeks after germination, fifteen days after treatment, control 328.5 milligrams",79.5 milligrams
same,treated plant dry weight,"Avena fatua; 1.05 milligrams, 7 days after germination, fifteenth day, control 489.6 milligrams",155.8 milligrams
same,plant condition on the 15th day,[5]; 0.6 to 1.5 milligrams per plant,all of the cyanobacterin treated plants were dead
same,treated plant dry weight,"[5]; 1 plant per pot, 1.5 milligrams, treated 8 days after germination, fifteen days of growth, control 363.8 milligrams",194.9 milligrams
same,treated plant dry weight,"[5]; 2 plants per pot, 0.6 milligrams, treated 6 days after germination, control 169.8 milligrams",101.4 milligrams
same,treated plant dry weight,"Setaria viridis; 0.5 milligrams, 8 days after germination, control 365.8 milligrams",176.3 milligrams
same,plant condition at approximately the 9th day after treatment,Setaria viridis; 0.5 or 2.8 milligrams,approximately half of the plants had died
same,treated plant dry weight,"Setaria viridis; 2.8 milligrams, 7 days after germination, control 411.7 milligrams",217.7 milligrams
same,treated plant dry weight,"Polygonium convolvulus; 0.29 milligrams, 2 days after germination, control 92.4 milligrams",59.1 milligrams
same,treated plant dry weight,"Polygonium convolvulus; 0.5 milligrams, 4 days after germination, control 157.8 milligrams",59.1 milligrams
same,plant condition by the 15th day,Polygonium convolvulus; either concentration (0.29 or 0.5 milligrams),Only a few of the cyanobacterin treated plants were dead
same,effect when applied to the soil,Application to the soil,no effect
same,hydrophobicity,Hydrophobicity,very hydrophobic
same,plant condition by the 15th day,Rumex crispus; 0.5 milligrams,"half of the plants were dead, one-quarter were chlorotic and one-quarter were large, green and healthy like the control"
same,treated plant dry weight,"Rumex crispus; 0.5 milligrams, 8 days after germination, control 451.9 milligrams",239.1 milligrams
same,plant condition by the 15th day,Rumex crispus; 1.45 milligrams,all were dead except for a few
same,treated plant dry weight,"Rumex crispus; 1.45 milligrams, seven days after germination, control 453.3 milligrams",93.1 milligrams
